From ChEMBL document CHEMBL5532672, “Discovery of 2-Ethoxy-5-isobutyramido-N-1-substituted Benzamide Derivatives as Selective Kv2.1 Inhibitors with In Vivo Neuroprotective Effects” (J Med Chem, 2024)
Activity calls are given as the source filed them. The calls are words filed in the database; no cut-off is given here.

Legend:
[1] = target: T1, Potassium voltage-gated channel subfamily B member 1 (Homo sapiens, UniProt Q14721); assay: Inhibition of human KV2.1 stably expressed in HEK293 cells by whole cell patch-clamp assay; assay type: cell-based
T1 sequence (Q14721 whole entry): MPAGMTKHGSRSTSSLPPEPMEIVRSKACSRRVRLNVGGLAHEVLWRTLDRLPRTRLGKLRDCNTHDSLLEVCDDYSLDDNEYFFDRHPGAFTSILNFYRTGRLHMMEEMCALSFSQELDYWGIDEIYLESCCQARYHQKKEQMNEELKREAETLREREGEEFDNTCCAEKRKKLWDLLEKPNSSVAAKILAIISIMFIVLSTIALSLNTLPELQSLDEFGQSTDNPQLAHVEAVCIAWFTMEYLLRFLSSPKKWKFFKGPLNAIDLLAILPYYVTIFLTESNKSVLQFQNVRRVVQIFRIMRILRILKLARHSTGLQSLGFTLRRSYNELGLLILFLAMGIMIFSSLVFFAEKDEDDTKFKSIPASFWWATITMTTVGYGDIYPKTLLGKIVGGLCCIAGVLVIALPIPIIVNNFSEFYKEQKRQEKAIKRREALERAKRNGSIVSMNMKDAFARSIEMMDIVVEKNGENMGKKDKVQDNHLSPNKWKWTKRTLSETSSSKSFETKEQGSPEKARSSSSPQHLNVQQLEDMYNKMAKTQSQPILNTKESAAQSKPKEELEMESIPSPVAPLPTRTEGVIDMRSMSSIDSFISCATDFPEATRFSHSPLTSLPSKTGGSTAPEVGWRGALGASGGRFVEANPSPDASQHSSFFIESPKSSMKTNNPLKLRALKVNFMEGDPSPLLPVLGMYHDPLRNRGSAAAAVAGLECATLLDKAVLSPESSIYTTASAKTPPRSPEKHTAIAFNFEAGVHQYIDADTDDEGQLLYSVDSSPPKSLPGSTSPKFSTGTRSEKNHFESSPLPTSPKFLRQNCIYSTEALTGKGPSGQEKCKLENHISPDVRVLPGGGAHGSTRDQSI

[2] = target: T2, Potassium voltage-gated channel subfamily B member 1 (Homo sapiens) (UniProt Q14721); assay: Inhibition of human KV2.1 stably expressed in HEK293 cells at 1 uM by whole cell patch-clamp assay; assay type: cell-based
T2 sequence (whole entry): T1 sequence (Q14721 whole entry)

[3] = target: T3, Voltage-gated potassium channel KCNC1 (Homo sapiens, UniProt P48547); assay: Inhibition of KV3.1 (unknown origin) by whole cell patch-clamp assay
T3 sequence (P48547 whole entry): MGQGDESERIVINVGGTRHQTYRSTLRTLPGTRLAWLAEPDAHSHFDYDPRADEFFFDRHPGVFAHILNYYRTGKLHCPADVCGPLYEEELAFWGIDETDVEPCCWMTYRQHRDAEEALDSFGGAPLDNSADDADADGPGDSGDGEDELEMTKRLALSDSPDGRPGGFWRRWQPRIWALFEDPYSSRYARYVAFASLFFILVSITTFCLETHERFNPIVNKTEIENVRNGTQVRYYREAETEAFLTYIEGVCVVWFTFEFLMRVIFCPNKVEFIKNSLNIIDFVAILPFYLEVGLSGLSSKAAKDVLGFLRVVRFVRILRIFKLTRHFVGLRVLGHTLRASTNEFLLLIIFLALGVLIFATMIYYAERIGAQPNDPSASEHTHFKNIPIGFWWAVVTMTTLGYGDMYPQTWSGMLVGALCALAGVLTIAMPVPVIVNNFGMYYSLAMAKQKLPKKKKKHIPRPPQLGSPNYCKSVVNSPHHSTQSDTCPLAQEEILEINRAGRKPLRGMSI

[4] = target: Potassium voltage-gated channel subfamily A member 5 (Homo sapiens, UniProt P22460); assay: Inhibition of KV1.5 (unknown origin) by whole cell patch-clamp assay
Sequence of Potassium voltage-gated channel subfamily A member 5 (P22460 whole entry): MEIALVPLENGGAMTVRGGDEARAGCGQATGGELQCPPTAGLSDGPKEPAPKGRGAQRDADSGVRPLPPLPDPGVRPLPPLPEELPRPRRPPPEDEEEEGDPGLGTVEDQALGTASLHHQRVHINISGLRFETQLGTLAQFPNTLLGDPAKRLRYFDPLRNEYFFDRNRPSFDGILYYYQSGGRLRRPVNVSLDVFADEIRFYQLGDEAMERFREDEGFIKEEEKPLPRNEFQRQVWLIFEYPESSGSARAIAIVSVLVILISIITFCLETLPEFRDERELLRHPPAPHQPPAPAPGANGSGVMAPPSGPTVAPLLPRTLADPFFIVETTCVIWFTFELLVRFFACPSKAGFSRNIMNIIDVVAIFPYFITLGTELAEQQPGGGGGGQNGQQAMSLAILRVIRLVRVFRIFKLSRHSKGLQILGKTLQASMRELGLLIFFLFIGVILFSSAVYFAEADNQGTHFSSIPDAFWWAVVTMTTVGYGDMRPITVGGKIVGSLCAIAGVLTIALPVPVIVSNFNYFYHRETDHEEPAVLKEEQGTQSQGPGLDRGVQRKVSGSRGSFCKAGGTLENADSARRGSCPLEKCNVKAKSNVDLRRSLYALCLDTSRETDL

[5] = target: Voltage-gated inwardly rectifying potassium channel KCNH2 (Homo sapiens, UniProt Q12809); assay: Inhibition of human ERG by whole cell patch-clamp assay; assay type: toxicity
Sequence of Voltage-gated inwardly rectifying potassium channel KCNH2 (Q12809 whole entry): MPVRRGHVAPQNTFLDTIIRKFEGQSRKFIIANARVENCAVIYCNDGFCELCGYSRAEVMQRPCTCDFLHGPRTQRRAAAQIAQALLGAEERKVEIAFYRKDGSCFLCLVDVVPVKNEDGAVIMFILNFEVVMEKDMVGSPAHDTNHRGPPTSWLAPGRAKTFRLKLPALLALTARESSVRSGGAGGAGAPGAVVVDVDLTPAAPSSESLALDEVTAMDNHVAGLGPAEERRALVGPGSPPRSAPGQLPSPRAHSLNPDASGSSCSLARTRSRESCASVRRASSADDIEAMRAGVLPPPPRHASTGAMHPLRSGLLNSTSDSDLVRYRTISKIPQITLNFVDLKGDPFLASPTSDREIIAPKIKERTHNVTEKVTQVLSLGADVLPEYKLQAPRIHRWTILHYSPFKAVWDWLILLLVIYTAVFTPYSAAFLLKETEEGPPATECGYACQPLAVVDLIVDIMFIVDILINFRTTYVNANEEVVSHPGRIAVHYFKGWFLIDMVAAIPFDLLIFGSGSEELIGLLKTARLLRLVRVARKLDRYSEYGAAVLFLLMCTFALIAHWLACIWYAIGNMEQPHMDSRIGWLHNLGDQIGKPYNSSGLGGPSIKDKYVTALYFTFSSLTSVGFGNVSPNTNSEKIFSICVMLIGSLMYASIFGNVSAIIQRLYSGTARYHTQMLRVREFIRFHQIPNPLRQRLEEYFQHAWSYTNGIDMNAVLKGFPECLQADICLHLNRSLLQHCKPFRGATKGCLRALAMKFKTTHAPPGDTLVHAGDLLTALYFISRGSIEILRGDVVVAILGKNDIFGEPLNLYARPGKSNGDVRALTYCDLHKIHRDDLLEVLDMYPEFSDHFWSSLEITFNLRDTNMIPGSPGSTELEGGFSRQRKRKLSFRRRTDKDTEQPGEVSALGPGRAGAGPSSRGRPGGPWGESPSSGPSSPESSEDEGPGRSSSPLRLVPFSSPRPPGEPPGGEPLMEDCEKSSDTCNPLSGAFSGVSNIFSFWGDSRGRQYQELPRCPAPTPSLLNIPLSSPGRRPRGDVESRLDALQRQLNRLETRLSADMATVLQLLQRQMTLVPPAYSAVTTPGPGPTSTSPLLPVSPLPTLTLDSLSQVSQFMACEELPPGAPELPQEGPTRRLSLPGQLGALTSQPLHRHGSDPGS

Row | SMILES | IC50 [1] | further results
1 | CCOc1ccc(NC(=O)C2CCCC2)cc1C(=O)NC(C)c1cccc(-c2nccs2)c1 (stereo not drawn) | > 10000 nM | –
2 | CCOc1ccc(NC(=O)C(C)C)cc1C(=O)N(C)Cc1cccc(-c2nccs2)c1 | – | inhibition [2]: inactive
3 | CCOc1ccc(NC(=O)C(C)C)cc1C(=O)NC(C)c1cccc(OC)c1 (stereo not drawn) | 370 nM | –
4 | CCOc1ccc(NC(=O)C(C)C)cc1C(=O)NC(C)c1cccc(N2CCC2)c1 (stereo not drawn) | 320 nM | –
5 | CCOc1ccc(NC(=O)C(C)C)cc1C(=O)NCc1cccc(OC(F)(F)F)c1 | 337 nM | –
6 | CCOc1ccc(NC(=O)OC(C)C)cc1C(=O)NC(C)c1cccc(-c2nccs2)c1 (stereo not drawn) | 1000 nM | –
7 | CCOc1ccc(NC(=O)C(C)C)cc1C(=O)NC(C)c1ccnc(NC)n1 (stereo not drawn) | > 1000 nM | –
8 | CC(C)C(=O)Nc1ccc(N(C)C)c(C(=O)NC(C)c2ccccc2)c1 (racemic) | 480 nM | –
9 | CCOc1ccc(N(C)C(=O)C(C)C)cc1C(=O)NCc1cccc(-c2nccs2)c1 | – | inhibition [2]: inactive
10 | CC(C)C(=O)Nc1ccc(N(C)C)c(C(=O)NCc2cccc(-c3ccccc3)c2)c1 | 3550 nM | –
11 | CCOc1ccc(NC(=O)C(C)C)cc1C(=O)NC(C)c1cncc(C)n1 (stereo not drawn) | > 1000 nM | –
12 | CCOc1ccc(NC(=O)CC)cc1C(=O)NC(C)c1cccc(-c2nccs2)c1 (stereo not drawn) | ~10000 nM | –
13 | CCOc1ccc(NC(=O)C(C)C)cc1C(=O)NC(C)c1cccc(C)c1 (stereo not drawn) | 80 nM | IC50 [3]: > 30000 nM; IC50 [4]: 5700 nM; IC50 [5]: 30000 nM
14 | CCOc1ccc(NC(=O)C2CCC2)cc1C(=O)NC(C)c1cccc(-c2nccs2)c1 (stereo not drawn) | 550 nM | –
15 | CCOc1ccc(NC(=O)C(C)C)cc1C(=O)NCc1cccc(-c2nccs2)c1 | 530 nM | –
16 | CCOc1ccc(NC(=O)C(C)C)cc1C(=O)NC(C)c1cccc(OC(F)F)c1 (stereo not drawn) | 250 nM | IC50 [4]: 10000 nM; IC50 [5]: 10000 nM
17 | CCOc1ccc(N2CCCC2=O)cc1C(=O)NCc1cccc(-c2nccs2)c1 | – | inhibition [2]: inactive
18 | COc1ccc(NC(=O)C(C)C)cc1C(=O)NC(C)c1cccc(-c2nccs2)c1 (stereo not drawn) | 3000 nM | –
19 | CC(C)C(=O)Nc1ccc(N(C)C)c(C(=O)NCc2cccc(-c3nccs3)c2)c1 | 390 nM | IC50 [3]: > 30000 nM; IC50 [4]: 11000 nM; IC50 [5]: 30000 nM

Row | SMILES | IC50 [1] | further results
20 | CCOc1ccc(NC(=O)C2CC2)cc1C(=O)NC(C)c1cccc(-c2nccs2)c1 (stereo not drawn) | 1100 nM | –
21 | CCOc1ccc(NC(=O)C(C)C)cc1C(=O)NCc1cccc(N2CCCC2)c1 | ~1000 nM | –
22 | CC(C)C(=O)Nc1cccc(C(=O)NC(C)c2cccc(-c3nccs3)c2)c1 (stereo not drawn) | > 1000 nM | –
23 | CCOc1ccc(C(=O)NC(C)C)cc1C(=O)NCc1cccc(-c2nccs2)c1 | – | inhibition [2]: inactive
24 | CCOc1ccc(NC(=O)c2ccccc2)cc1C(=O)NCc1cccc(-c2nccs2)c1 | – | inhibition [2]: inactive
25 | CCOc1ccc(NC(=O)C(C)C)cc1C(=O)NC(C)c1ccccc1 (stereo not drawn) | ~1000 nM | –
26 | CCOc1ccc(NC(=O)C(C)C)cc1C(=O)NCc1cccc(Br)c1 | ~1000 nM | –
27 | CC(C)COc1ccc(NC(=O)C(C)C)cc1C(=O)NC(C)c1cccc(-c2nccs2)c1 (stereo not drawn) | > 1000 nM | –
28 | CCOc1ccc(NC(=O)C(C)C)cc1C(=O)NC(C)c1cccc(-c2ncccn2)c1 (stereo not drawn) | 660 nM | –
29 | CC(C)C(=O)Nc1ccc(N(C)C)c(C(=O)NCc2ccncc2)c1 | – | inhibition [2]: inactive
30 | CCOc1ccc(NC(=O)C(C)C)cc1C(=O)NC(C)c1cccc(N2CCCC2)c1 (stereo not drawn) | ~1000 nM | –
31 | CCOc1ccc(NC(C)=O)cc1C(=O)NC(C)c1cccc(-c2nccs2)c1 (stereo not drawn) | ~10000 nM | –
32 | CC(C)C(=O)Nc1ccc(N(C)C)c(C(=O)NCc2cccc3ccccc23)c1 | > 1000 nM | –
33 | CCOc1ccc(NC(=O)C(F)(F)F)cc1C(=O)NC(C)c1cccc(-c2nccs2)c1 (stereo not drawn) | > 10000 nM | –
34 | CCOc1ccc(NC(=O)C(C)C)cc1C(=O)NC(C)c1cccc(Br)n1 (stereo not drawn) | ~1000 nM | –
35 | CCOc1ccc(NC(=O)C(C)C)cc1C(=O)NC(C)c1ccnc(OC)c1 (stereo not drawn) | 430 nM | –
36 | CCCOc1ccc(NC(=O)C(C)C)cc1C(=O)NC(C)c1cccc(-c2nccs2)c1 (stereo not drawn) | 590 nM | –
37 | CCOc1ccc(NC(=O)C(C)C)cc1C(=O)NC(C)c1ccnc(Cl)n1 (stereo not drawn) | ~1000 nM | –
38 | CCOC(=O)Nc1ccc(OCC)c(C(=O)NC(C)c2cccc(-c3nccs3)c2)c1 (stereo not drawn) | 1100 nM | –

Further lines, with some results ahead:

Row | IC50 [1] | SMILES | further results
39 | > 1000 nM | CC(C)Oc1ccc(NC(=O)C(C)C)cc1C(=O)NC(C)c1cccc(-c2nccs2)c1 (stereo not drawn) | –
40 | > 1000 nM | CC(C)C(=O)Nc1ccc(OCC(F)(F)F)c(C(=O)NC(C)c2cccc(-c3nccs3)c2)c1 (stereo not drawn) | –
41 | 430 nM | CCOc1ccc(NC(=O)C(C)C)cc1C(=O)NC(C)c1cccc(-c2nccs2)c1 (stereo not drawn) | IC50 [3]: > 30000 nM; IC50 [4]: 10000 nM; IC50 [5]: > 30000 nM
42 | 10000 nM | CCOc1ccc(NS(=O)(=O)CC)cc1C(=O)NC(C)c1cccc(-c2nccs2)c1 (stereo not drawn) | –
43 | 320 nM | CCOc1ccc(NC(=O)C(C)C)cc1C(=O)NC(C)c1cccc(F)n1 (stereo not drawn) | –
44 | ~1000 nM | CCOc1ccc(NC(=O)C(C)C)cc1C(=O)NC(C)c1ccnc(OC)n1 (stereo not drawn) | –
45 | 300 nM | CCOc1ccc(NC(=O)C(C)C)cc1C(=O)NCc1cccc(OC(F)F)c1 | IC50 [3]: > 30000 nM; IC50 [4]: 14200 nM; IC50 [5]: 30000 nM
46 | > 1000 nM | CCOc1ccc(NC(=O)C(C)C)cc1C(=O)NCc1cccc(-c2ccccn2)c1 | –
47 | ~1000 nM | CCOc1ccc(NC(=O)C(C)C)cc1C(=O)NC(C)c1cccc(Br)c1 (stereo not drawn) | –
48 | > 1000 nM | CC(C)C(=O)Nc1ccc(OCC(F)(F)F)c(C(=O)NCc2cccc(-c3nccs3)c2)c1 | –
49 | 540 nM | CC(C)C(=O)Nc1ccc(N(C)C)c(C(=O)NCc2ccccn2)c1 | IC50 [3]: > 30000 nM; IC50 [4]: > 30000 nM; IC50 [5]: 30000 nM
50 | > 1000 nM | CC(C)C(=O)Nc1ccc(N(C)C)c(C(=O)NCc2cccnc2)c1 | –
51 | 50 nM | CCOc1ccc(NC(=O)C(C)C)cc1C(=O)NC(C)c1cccc(OC)n1 (stereo not drawn) | IC50 [4]: 10000 nM; IC50 [5]: > 30000 nM
52 | > 1000 nM | CC(C)C(=O)Nc1ccc(N(C)C)c(C(=O)NCc2cccc(-c3ccco3)c2)c1 | –
53 | ~1000 nM | CCOc1ccc(NC(=O)C(C)C)cc1C(=O)NC(C)c1cccc(Cl)n1 (stereo not drawn) | –
54 | ~1000 nM | CCOc1ccc(NC(=O)C(C)C)cc1C(=O)NC(C)c1ccnc(C)n1 (stereo not drawn) | –
